Data reported in US20020173541A1, “Arthropod-controlling composition” (SUMITOMO CHEMICAL COMPANY, LIMITED, priority 2001, published 2002).

Tested on: adult German cockroaches
Assay: Knock-down test: oil solution sprayed on adult German cockroaches
Assay type: in vivo, Blattella germanica (German cockroach)
Protocol: According to Production example 7, each of the 0.5% oil solutions of The Pyrone Compound and Reference compound 1 was prepared. A square of paper (side: 20 cm) was covered on the iron net set on the bottom of the metallic chamber (46 cm×46 cm, 70 cm in height). A container (8.75 cm in diameter, 7.5 cm in height, having 16-mesh net at the bottom and spreading butter on the wall for preventing escape) was set on the paper. In the container, ten (5 males and 5 females) adult German cockroaches were released. By means of spray gun, 1.5 ml of the above oil solution was applied to the test insects at pressure of 4.1×10^4 Pa from the upper part of the chamber. The container was taken out of the chamber 30 seconds after spraying and the test insects were transferred to a plastic cup. Two minutes after spraying, the knocked-down cockroaches were counted. According to Production example 7, each of the 0.25% oil solutions of The Pyrone Compound and Reference compounds 2 and 3 was prepared. The same procedures as Test Example 1 gave the knock-down percentages and KT50 values (minutes for knocked-down 50% of cockroaches) in Table 2.

[1] = 0.5% oil solution, 1.5 ml sprayed, knocked-down cockroaches counted two minutes after spraying
[2] = 0.25% oil solution, same procedures as Test Example 1, average of 6 (The Pyrone Compound) or 3 (references) repetitions

| SMILES | Knock-down percentage (%) [1] [%] | KT50 (minutes for knocked-down 50% of cockroaches) [2] | Knock-down percentage (%) [2] [%] |
| --- | --- | --- | --- |
| Cc1cc(O)c(C(=O)C(C)C)c(=O)o1 [Reference compound 1, 4-hydroxy-6-methyl-3-(2-methylpropanoyl)-2-pyrone] | 10 |  |  |
| CCC(CC)C(=O)c1c(O)cc(C)oc1=O [Reference compound 2, 4-hydroxy-6-methyl-3-(2-ethylbutanoyl)-2-pyrone] |  | more than 10 minutes | 0 |
| Cc1cc(O)c(C(=O)C2CC2)c(=O)o1 [Reference compound 3, 4-hydroxy-6-methyl-3-(cyclopropanecarbonyl) -2-pyrone] |  | more than 10 minutes | 6.7 |
| Cc1cc(O)c(C(=O)CC(C)C)c(=O)o1 [The Pyrone Compound, 4-hydroxy-6-methyl-3-(3-methylbutanoyl)-2-pyrone] | 100 | 0.85 min | 95 |
